Read-outs that look alike come from different tables or passages of the source.
Target: T1, BRD4 (Homo sapiens, UniProt O60885)
T1 construct: endogenously expressing BRD4 with HiBiT fusion tag via CRISPR; endogenous in cells; host or cells: HEK293T.92 (made in-house from 293T, ATCC CRL-3216)
Assay: BRD4 HiBiT degradation assay in HEK293T.92 cells
Format: cell-based
Text: This assay evaluates the degradation of Bromodomain Containing 4 (BRD4) induced by treatment with Compound 1 as measured by luminescence using Nano-Glo® HiBiT Lytic Assay System in HEK293 cells CRISPR-edited to endogenously express HiBiT tagged BRD4.
Nano-Glo® HiBiT Lytic Assay System was purchased from Promega (Catalog No. N3050, Madison, WI, USA). 293T cells were obtained from ATCC (Catalog No. CRL-3216, Manassas, VA, USA), and maintained in Dulbecco's modified Eagle medium (DMEM) (Catalog No. 12430112, ThermoFisher Scientific, Waltham, MA, USA) supplemented with 10% fetal bovine serum (FBS) (Catalog No. 16000-044, Gibco, Grand Island, NY, USA) at 37° C. in an atmosphere of 5% CO2 in air. The HiBiT polypeptide tag was introduced into the N-terminus of the endogenous BRD4 locus by CRISPR-Cas9 to produce the modified HEK293T.92 cell line. The HiBiT polypeptide allows reconstitution of NanoBiT enzyme following cell lysis and addition of the complementing LgBiT polypeptide that activates substrate to produce a luminescent signal that is directly proportional to the amount of HiBiT-tagged BRD4.
The HEK293T.92 cells were routinely sub-cultured to maintain cell density between 30-80% confluence, not to exceed 20 passages. Cells were washed with PBS pH 7.4 (Catalog No. 10010049, ThermoFisher Scientific, Waltham, MA, USA), trypsinized for 5 minutes at 37° C., and resuspended in fresh growth media without phenol red. An aliquot was diluted 2× with Trypan Blue solution 0.4% (Catalog No. 15250061, ThermoFisher Scientific, Waltham, MA, USA) and cell count determined. Cell concentration was adjusted with growth media without phenol red to 5.0×10^5 cells/mL.
Compound 1 was prepared by dissolving neat compounds in DMSO (Catalog No. D8418, Sigma-Aldrich, Inc., St. Louis, MO, USA) to generate 10 mM stock solution and stored at −20° C. The 10 mM DMSO stock solution of Compound 1 was serially diluted (half log) in DMSO to generate 11-point dose series (10000, 3165, 1000, 316, 100, 31.6, 10, 3.2, 1, 0.32, 0.1 μM) in an acoustic ready 384-well low dead volume microplate (Catalog No. LP-0200, Beckman Coulter Life Sciences, Indianapolis, IN, USA). Using an Echo 550 Acoustic Liquid Handler (Beckman Coulter Life Sciences, Indianapolis, IN, USA), 30 nL of serially diluted compound solutions were dispensed in duplicate to each 384-well TC-treated microplate (Catalog No. 3571, Corning, Glendale, CA, USA). 30 nL DMSO was transferred to all control wells.
30 μL of 293T.92 cells suspended in growth media without phenol red at 5.0×10^5 cells/mL (15000 cells/well) were dispensed using a Multidrop Combi Reagent Dispenser (Catalog No. 5840300, ThermoFisher Scientific, Waltham, MA, USA) to each well of columns 1-23 of 384-well TC-treated microplates containing duplicate concentration range of test compounds and DMSO controls. 30 μL of media was dispensed to column 24 as background positive control (P). Plates were spun briefly at 1000 rpm and cells were incubated at 37° C., 5% CO2 for 24 hours. Final concentration of DMSO was 0.1% for all samples.
Cellular BRD4 protein level was determined based on quantification of HiBiT using Nano-Glo® HiBiT Lytic Assay System (Promega). 30 μL Nano-Glo Lytic Assay reagents were added to each well and luminescence was acquired on EnVision® Multilabel Reader (Catalog No. 2104-0010, Perkin Elmer Inc., Dumfries, VA, USA). Cells treated in the absence of the test compound (0.1% DMSO vehicle) were the negative control (N) and wells containing only media were the positive control (P).
Percent response of compound-treated samples (T) were calculated by normalizing to the DMSO treated negative (N) controls on the same microtiter plate after background (i.e., positive control) signal subtraction:
Curve fit and DC50 (concentration that degrades 50% BRD4) determination was performed by 4 parametric logistic fit analysis using software such as GraphPad Prism software (GraphPad Software, LLC, San Diego, CA, USA). […]

COc1cc(-c2cn(C)c(=O)c(C)c2C)cc(OC)c1CN1CC[C@H](N2CCN(c3ccc(N[C@H]4CCC(=O)NC4=O)cc3F)CC2)C(F)(F)C1 [Compound 1, (S)-3-((4-(4-((S)-1-(2,6-dimethoxy-4-(1,4,5-trimethyl-6-oxo-1,6-dihydropyridin-3-yl)benzyl)-3,3-difluoropiperidin-4-yl)piperazin-1-yl)-3-fluorophenyl)amino)-piperidine-2,6-dione]
% BRD4 Remaining Relative to Vehicle Control at 24 hr, Mean (0.101 nM): 96.1%
% BRD4 Remaining Relative to Vehicle Control at 24 hr, Mean (0.318 nM): 96.3%
% BRD4 Remaining Relative to Vehicle Control at 24 hr, Mean (1.01 nM): 96.3%
% BRD4 Remaining Relative to Vehicle Control at 24 hr, Mean (3.17 nM): 96.1%
% BRD4 Remaining Relative to Vehicle Control at 24 hr, Mean (10.0 nM): 96.0%
% BRD4 Remaining Relative to Vehicle Control at 24 hr, Mean (31.7 nM): 96.4%
% BRD4 Remaining Relative to Vehicle Control at 24 hr, Mean (100 nM): 95.8%
% BRD4 Remaining Relative to Vehicle Control at 24 hr, Mean (317 nM): 92.5%
% BRD4 Remaining Relative to Vehicle Control at 24 hr, Mean (1000 nM): 89.2%
% BRD4 Remaining Relative to Vehicle Control at 24 hr, Mean (3161 nM): 84.4%
% BRD4 Remaining Relative to Vehicle Control at 24 hr, Mean (9990 nM): 78.1%
DC50 (BRD4-HiBiT, 293T.92 cells, 24 hours, read-out: Mean DC50): > 10 µM
Emax (BRD4-HiBiT, 293T.92 cells, 24 hours, read-out: Mean Emax (%) ± SD): 78.1 ± 3.41%
effect on the degradation of BRD4 (concentrations up to 10 μM, 24 hours): no significant effect
DC50 (summary statement, read-out: DC50 against BRD4): > 1 µM
